Test results taken from patent publication US11964953B2, “Substituted aminothiazoles as DGKzeta inhibitors for immune activation” (Bayer Aktiengesellschaft, priority 2020, dated 2024).

molecular target: human DGKζ (Homo sapiens (Human), UniProt Q13574); experiment: Human DGKζ kinase activity inhibition assay (ADP-Glo); format: biochemical; details: in vitro human DGKζ kinase activity inhibition assay; read-out: IC50
In short: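 ADP-Glo luminescence, reflecting ADP produced, served as the readout of activity. Full-length human DGKζ, FLAG-tagged at the C-terminus and insect-cell expressed, was used; lipid substrate mix was sonicated with octyl-β-D-glucopyranoside in 50 mM MOPS pH 7.4.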

Sequence of human DGKζ (Q13574 other isoform, or with tags, fused parts or gaps): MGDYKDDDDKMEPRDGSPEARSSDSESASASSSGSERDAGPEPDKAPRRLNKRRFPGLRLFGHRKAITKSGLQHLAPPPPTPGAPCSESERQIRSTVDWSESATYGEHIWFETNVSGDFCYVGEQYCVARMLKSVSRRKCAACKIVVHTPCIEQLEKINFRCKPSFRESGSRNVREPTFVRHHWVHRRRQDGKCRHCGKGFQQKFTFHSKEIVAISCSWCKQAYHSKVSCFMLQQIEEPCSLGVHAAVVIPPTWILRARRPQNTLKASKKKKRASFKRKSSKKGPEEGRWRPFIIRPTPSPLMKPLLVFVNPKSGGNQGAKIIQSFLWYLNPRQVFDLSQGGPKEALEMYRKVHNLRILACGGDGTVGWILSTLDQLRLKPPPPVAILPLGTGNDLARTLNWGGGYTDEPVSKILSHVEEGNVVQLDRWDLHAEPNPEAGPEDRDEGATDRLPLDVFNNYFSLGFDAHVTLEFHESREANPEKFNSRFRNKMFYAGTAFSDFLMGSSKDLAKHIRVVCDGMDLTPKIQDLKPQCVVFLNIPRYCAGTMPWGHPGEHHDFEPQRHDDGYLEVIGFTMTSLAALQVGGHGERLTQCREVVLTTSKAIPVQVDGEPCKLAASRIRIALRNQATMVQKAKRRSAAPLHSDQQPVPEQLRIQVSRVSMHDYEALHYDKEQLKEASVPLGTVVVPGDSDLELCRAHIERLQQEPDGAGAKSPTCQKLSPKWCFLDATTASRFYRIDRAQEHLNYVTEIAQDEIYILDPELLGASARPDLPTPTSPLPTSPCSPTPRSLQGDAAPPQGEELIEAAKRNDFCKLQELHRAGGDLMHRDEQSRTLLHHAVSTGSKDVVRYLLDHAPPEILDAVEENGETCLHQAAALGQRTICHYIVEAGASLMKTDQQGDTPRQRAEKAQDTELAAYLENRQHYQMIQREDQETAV

First: CC(C(N)=O)N(c1ccc(F)c(F)c1)c1nc(N)c(C(=O)c2ccc(C(F)(F)F)nc2)s1 (single isomer, unassigned) [Example 53.1, 2-(N-[4-amino-5-[6-(trifluoromethyl)pyridine-3-carbonyl]thiazol-2-yl]-3,4-difluoro-anilino)propanamide]
Second: COc1ccc(C(=O)c2sc(N(c3ccc(F)c(F)c3)C(C)C(N)=O)nc2N)cn1 (single isomer, unassigned) [Example 52.1, 2-(N-[4-amino-5-(6-methoxypyridine-3-carbonyl)thiazol-2-yl]-3,4-difluoro-anilino)propanamide]
The IC50 of the first is 3.6-fold lower: 20.3 nM for the first, 72.7 nM for the second.

`CC(C(N)=O)N(c1ccc(F)cc1)c1nc(N)c(C(=O)c2ccc(OCC(=O)Nc3ncnc4[nH]ncc34)cc2)s1` (racemic) [Example 131, rac-2-(N-[4-amino-5-[4-[2-oxo-2-(1H-pyrazolo[3,4-d]pyrimidin-4-ylamino)ethoxy]benzoyl]thiazol-2-yl]-4-fluoro-anilino)propanamide] and `CCNC(=O)COc1ccc(C(=O)c2sc(N(c3ccc(F)cc3)C(C)C(N)=O)nc2N)cc1` (racemic) [Example 104, rac-2-(N-[4-amino-5-[4-[2-(ethylamino)-2-oxo-ethoxy]benzoyl]thiazol-2-yl]-4-fluoro-anilino)propanamide] are within 1.5-fold of each other in IC50: 180 nM for the first, 234 nM for the second.

First: Cc1ccc(N(C)C(=O)COc2ccc(C(=O)c3sc(N(c4ccc(F)cc4)C(C)C(N)=O)nc3N)cc2)cc1 (racemic) [Example 139, rac-2-(N-[4-amino-5-[4-[2-(N,4-dimethylanilino)-2-oxo-ethoxy]benzoyl]thiazol-2-yl]-4-fluoro-anilino)propanamide]
Second: COc1ccc(NC(=O)COc2ccc(C(=O)c3sc(N(c4ccc(F)cc4)C(C)C(N)=O)nc3N)cc2)cc1 (racemic) [Example 117, rac-2-(N-[4-amino-5-[4-[2-(4-methoxyanilino)-2-oxo-ethoxy]benzoyl]thiazol-2-yl]-4-fluoro-anilino)propanamide]
The IC50 of the first is 3.8-fold higher: 56.9 nM for the first, 14.9 nM for the second.

Going from `CC(Oc1ccc(C(=O)c2sc(N(c3ccc(F)cc3)C(C)C(N)=O)nc2N)cc1)C(N)=O` (racemic) [Example 69, 2-(N-[4-amino-5-[4-(2-amino-1-methyl-2-oxo-ethoxy)benzoyl]thiazol-2-yl]-4-fluoro-anilino)propanamide] to `CC(C(N)=O)N(c1ccc(F)cc1)c1nc(N)c(C(=O)c2ccc(OC(F)(F)F)cc2)s1` (single isomer, unassigned) [Example 40.1, 2-(N-[4-amino-5-[4-(trifluoromethoxy)benzoyl]thiazol-2-yl]-4-fluoro-anilino)propanamide], the IC50 rises from 64.1 nM to 792 nM (12-fold). The first is the more potent here.

Compared with `CC(C(N)=O)N(c1ccc(F)c(OC(F)(F)F)c1)c1nc(N)c(C(=O)c2ccccc2)s1` (racemic) [Example 235, rac-2-[N-(4-amino-5-benzoyl-thiazol-2-yl)-4-fluoro-3-(trifluoromethoxy)anilino]propanamide], `COc1ccc(C(=O)c2sc(N(c3ccc(OC(F)(F)F)c(F)c3)C(C)C(N)=O)nc2N)cc1` (racemic) [Example 217, rac-2-[N-[4-amino-5-(4-methoxybenzoyl)thiazol-2-yl]-3-fluoro-4-(trifluoromethoxy)anilino]propanamide] is 13-fold lower in IC50: 542 nM for the first, 41 nM for the second.

First: COCCNC(=O)COc1ccc(C(=O)c2sc(N(c3ccc(F)cc3)C(C)C(N)=O)nc2N)cc1 (racemic) [Example 91, rac-2-(N-(4-amino-5-[4-[2-(2-methoxyethylamino)-2-oxo-ethoxy]benzoyl]thiazol-2-yl]-4-fluoro-anilino)propanamide]
Second: CC(C(N)=O)N(c1ccc(F)cc1)c1nc(N)c(C(=O)c2ccc(OCC(=O)NC3CCCCC3)cc2)s1 (racemic) [Example 106, rac-2-(N-(4-amino-5-[4-[2-(cyclohexylamino)-2-oxo-ethoxy]benzoyl]thiazol-2-yl]-4-fluoro-anilino)propanamide]
The IC50 of the first is 21-fold higher: 701 nM for the first, 33.3 nM for the second.

Compared with `CCC(C(N)=O)N(c1ccc(F)cc1)c1nc(N)c(C(=O)c2ccc(OC)cc2)s1` (racemic) [Example 70, rac-2-{[4-amino-5-(4-methoxybenzoyl)-1,3-thiazol-2-yl](4-fluorophenyl)amino}butanamide], `CC(C(N)=O)N(c1ccc(F)cc1)c1nc(N)c(C(=O)c2ccc(OCc3ccccc3)cc2)s1` (racemic) [Example 170, rac-2-(N-[4-amino-5-(4-benzyloxybenzoyl)thiazol-2-yl]-4-fluoro-anilino)propanamide] is 28-fold lower in IC50: 196 nM for the first, 7 nM for the second. The second is the more potent here.

First: CC(C(N)=O)N(c1ccc(OC(F)(F)F)nc1)c1nc(N)c(C(=O)c2ccc(Cl)cc2)s1 (racemic) [Example 249, rac-2-[[4-amino-5-(4-chlorobenzoyl)thiazol-2-yl]-[6-(trifluoromethoxy)-3-pyridyl]amino]propanamide]
Second: CC(C(N)=O)N(c1ccc(Cl)cc1)c1nc(N)c(C(=O)c2ccc(Cl)cc2)s1 (single isomer, unassigned) [Example 41.2, 2-(N-[4-amino-5-(4-chlorobenzoyl)thiazol-2-yl]-4-chloro-anilino)propanamide]
The IC50 of the first is 16-fold higher: 120 nM for the first, 7.73 nM for the second. The second is the more potent here.

Compared with `CC(C(N)=O)N(c1ccc(F)cc1)c1nc(N)c(C(=O)c2ccc(C(=O)NC3CC3)cc2)s1` (racemic) [Example 266, rac-4-[4-amino-2-(N-(2-amino-1-methyl-2-oxo-ethyl)-4-fluoro-anilino)thiazole-5-carbonyl]-N-cyclopropyl-benzamide], `CC(C(N)=O)N(c1ccc(F)cc1)c1nc(N)c(C(=O)c2ccccc2)s1` (single isomer, unassigned) [Example 61.1, 2-(N-(4-amino-5-benzoyl-thiazol-2-yl)-4-fluoro-anilino)propanamide] is 18-fold higher in IC50: 287 nM for the first, 5180 nM for the second.

First: CC(C(N)=O)N(c1nc(N)c(C(=O)c2ccccc2)s1)c1ccc(F)cc1F (racemic) [Example 65, rac-2-(N-(4-amino-5-benzoyl-thiazol-2-yl)-2,4-difluoro-anilino)propanamide]
Second: CC(C(N)=O)N(c1nc(N)c(C(=O)c2ccccc2)s1)c1ccc(OC(F)F)cc1F (racemic) [Example 241, rac-2-[N-(4-amino-5-benzoyl-thiazol-2-yl)-4-(difluoromethoxy)-2-fluoro-anilino]propanamide]
The IC50 of the first is 3.8-fold lower: 101 nM for the first, 382 nM for the second.

Compared with `COc1ccc(C(=O)c2sc(N(c3ccc(OC(F)F)c(F)c3)C(C)C(N)=O)nc2N)cc1` (racemic) [Example 205, rac-2-[N-[4-amino-5-(4-methoxybenzoyl)thiazol-2-yl]-4-(difluoromethoxy)-3-fluoro-anilino]propanamide], `CC(C(N)=O)N(c1ccc(Cl)c(F)c1)c1nc(N)c(C(=O)c2ccc(OC(F)F)cc2)s1` (racemic) [Example 48, rac-2-(N-[4-amino-5-[4-(difluoromethoxy)benzoyl]thiazol-2-yl]-4-chloro-3-fluoro-anilino)propanamide] is 15-fold lower in IC50: 54 nM for the first, 3.72 nM for the second. The second is the more potent here.

First: CC(C(N)=O)N(c1ccc(F)cc1)c1nc(N)c(C(=O)c2ccc(C#N)c(F)c2)s1 (single isomer, unassigned) [Example 21.1, 2-(N-[4-amino-5-(4-cyano-3-fluoro-benzoyl)thiazol-2-yl]-4-fluoro-anilino)propanamide]
Second: CC(C(N)=O)N(c1ccc(F)cc1)c1nc(N)c(C(=O)c2ccccc2)s1 (racemic) [Example 61, rac-2-(N-(4-amino-5-benzoyl-thiazol-2-yl)-4-fluoro-anilino)propanamide]
The IC50 of the first is 59-fold higher: 5510 nM for the first, 93.2 nM for the second.

Going from `CC(C(N)=O)N(c1ccc(Cl)c(F)c1)c1nc(N)c(C(=O)c2ccc(C(=O)NCCOC(C)(C)C)cc2)s1` (racemic) [Example 271, rac-4-[4-amino-2-(N-(2-amino-1-methyl-2-oxo-ethyl)-4-chloro-3-fluoro-anilino)thiazole-5-carbonyl]-N-(2-tert-butoxyethyl)benzamide] to `CC(C(N)=O)N(c1ccc(Cl)c(F)c1)c1nc(N)c(C(=O)c2ccc(C(=O)NCCOc3ccccc3)cc2)s1` (racemic) [Example 268, rac-4-[4-amino-2-(N-(2-amino-1-methyl-2-oxo-ethyl)-4-chloro-3-fluoro-anilino)thiazole-5-carbonyl]-N-(2-phenoxyethyl)benzamide], the IC50 falls from 18 nM to 3 nM (6-fold).

Going from `CC(C(N)=O)N(c1ccc(F)cc1)c1nc(N)c(C(=O)c2ccc(N(C)C)nc2)s1` (racemic) [Example 278, rac-2-(N-[4-amino-5-[6-(dimethylamino)pyridine-3-carbonyl]thiazol-2-yl]-4-fluoro-anilino)propanamide] to `CC(C(N)=O)N(c1ccc(F)cc1)c1nc(N)c(C(=O)c2ccc(N3CCC(F)(F)CC3)nc2)s1` (racemic) [Example 284, rac-2-(N-[4-amino-5-[6-(4,4-difluoro-1-piperidyl)pyridine-3-carbonyl]thiazol-2-yl]-4-fluoro-anilino)propanamide], the IC50 falls from 230 nM to 33 nM (7-fold). The second is the more potent here.

Going from `CC(C(N)=O)N(c1nc(N)c(C(=O)c2ccc(OC(F)F)cc2)s1)c1ccc(Cl)cc1F` (single isomer, unassigned) [Example 46.1, 2-(N-[4-amino-5-[4-(difluoromethoxy)benzoyl]thiazol-2-yl]-4-chloro-2-fluoro-anilino)propanamide] to `CC(C(N)=O)N(c1ccc(Cl)c(F)c1)c1nc(N)c(C(=O)c2ccc(O)cc2)s1` (single isomer, unassigned; enantiomer 1) [Example 289, 2-(N-[4-amino-5-(4-hydroxybenzoyl)thiazol-2-yl]-4-chloro-3-fluoro-anilino)propanamide (enantiomer 1)], the IC50 falls from 1470 nM to 10 nM (150-fold).

`COc1ccc(N(c2nc(N)c(C(=O)c3ccccc3)s2)C(C)C(N)=O)cc1Cl` (racemic) [Example 17, rac-2-(N-(4-amino-5-benzoyl-thiazol-2-yl)-3-chloro-4-methoxy-anilino)propanamide] and `CC(C(N)=O)N(c1ccc(N(C)C)c(Cl)c1)c1nc(N)c(C(=O)c2ccccc2)s1` (racemic) [Example 13, rac-2-[N-(4-amino-5-benzoyl-thiazol-2-yl)-3-chloro-4-(dimethylamino)anilino]propanamide] are within 1.5-fold of each other in IC50: 261 nM for the first, 357 nM for the second.
